The test system of data set [1] is B-16 mouse melanoma cells. The data set can be described thus: Melanin generation inhibitory effects in terms of cells. The class given is cell-based. The conditions noted are these: 72 h, 5 μg/ml, cultured for 3 days, relative to control, read-out: Inhibition rate (%) of melanin generation. The protocol: Each of the compounds prepared according to the procedures described in Examples 1 to 29 and hydroquinone were added to a culture solution containing B-16 mouse melanoma cells, followed by experiments to determine whitening effects in terms of cells (Lotan R., Lotan D. Cancer Res., 40, pp. 3345-3350, 1980). After treating the compounds to have final concentrations of […] and […], respectively, each of these compounds was added to a culture medium containing B-16 melanoma cells and cultured for 3 days. Then, these cells were treated using trypsin, separated from a culture vessel and centrifuged, then, melanin was extracted from the cells. Melanin was dissolved by adding 1 ml of 1N sodium hydroxide solution to the extract and subjected to measurement of absorbance at 475 nm, and an amount of the generated melanin was expressed by an absorbance per unit number of cells (10^6 cells) (this procedure was repeated three times). An amount of the generated melanin relative to control was calculated as an inhibition rate (%), and results thereof are shown in Table 1 below.

In data set [2] the test system is B-16 mouse melanoma cells. Described as above. The data set is classed as cell-based. The conditions noted are these: for inhibition at 20 µg/mL: 20 μg/ml.
Data set [3] relates to B-16 mouse melanoma cells. Particulars: at 1 μg/ml or more.
[4] abbreviates: Mus musculus, 72 h, cultured for 3 days, relative to control, read-out: Inhibition rate (%) of melanin generation.

Regarding `CCCCCCOC(=O)c1ccccc1OCCCCCC` [Example 5, 2-hexyloxy benzoic acid hexyl ester], in data set [1], the inhibition at 5 µg/mL amounted to 52%. Moreover, the inhibition at 20 µg/mL in data set [2] (setting [4]) stood at 67%.

For the compound `CCOC(=O)c1cccc(OCC)c1` [Example 8, 3-ethoxy benzoic acid ethyl ester], the inhibition at 5 µg/mL in data set [1] stood at 27%. Besides, the inhibition at 20 µg/mL in data set [2] (setting [4]) came to 42%.

As for `CCCCCCOC(=O)c1cccc(OCCCCCC)c1` [Example 12, 3-hexyloxy benzoic acid hexyl ester], the inhibition at 5 µg/mL in data set [1] came to 46%. Moreover, the inhibition at 20 µg/mL in data set [2] (setting [4]) came to 61%.

Regarding `CCCCCOC(=O)c1c(OCCCCC)cnc2ccccc12` [Example 19, 3-pentyloxy-quinoline-4-carboxylic acid pentyl ester], the inhibition at 5 µg/mL in data set [1] was found to be 38%. The inhibition at 20 µg/mL in data set [2] (setting [4]) amounted to 59%.

With `Oc1ccc(O)cc1` [Hydroquinone, hydroquinone, reference compound], the “Inhibition rate (%) of melanin generation” value in data set [2] (5 μg/ml, cultured for 3 days, relative to control) is “Apoptosis”. Moreover, the inhibition at 1 µg/mL in data set [2] (Mus musculus, 72 h, 1 μg/ml, cultured for 3 days, relative to control, read-out: Inhibition rate (%) of melanin generation) turned out to be 48%. In data set [2] (cultured mouse melanoma cells), the “melanin generation inhibitory effects (in words)” value is given as “strong effects of inhibiting melanin generation at a low concentration”. The cytotoxicity entry in data set [3] is listed as “serious cytotoxicity”.

On to `CCCCC(CC)C(=O)Oc1ccccc1C(C)=O` (centres unmarked) [Example 24, 2-ethylhexanoic acid 2-acetyl-phenyl ester], for which the inhibition at 5 µg/mL in data set [1] stood at 19%. For the same compound, the inhibition at 20 µg/mL in data set [2] (setting [4]) was 38%.

`CCCCCOc1ccccc1C(C)=O` [Example 20, 1-(2-pentyloxy-phenyl)-ethanone]: the inhibition at 5 µg/mL in data set [1] came to 24%. For the same compound, in data set [2] (setting [4]), the inhibition at 20 µg/mL came to 41%.

Take `CCCCCOC(=O)c1ccncc1OCCCCC` [Example 18, 3-pentyloxy-4-pyridinecarboxylic acid pentyl ester]: the inhibition at 5 µg/mL in data set [1] came to 42%. Besides, in data set [2] (setting [4]), the inhibition at 20 µg/mL was 71%.

On to `CCCOC(=O)c1ccccc1OCCC` [Example 2, 2-propoxy benzoic acid propyl ester], for which the inhibition at 5 µg/mL in data set [1] came out at 41%. For the same compound, the inhibition at 20 µg/mL in data set [2] (setting [4]) came out at 52%.

In the case of `CCCOC(=O)c1cccc(OCCC)c1` [Example 9, 3-propoxy benzoic acid propyl ester], in data set [1], the inhibition at 5 µg/mL was determined as 29%. Besides, the inhibition at 20 µg/mL in data set [2] (setting [4]) turned out to be 48%.

Turning to `CCCCCCCCCCOC(=O)c1cccc(OCCCCCCCCCC)c1` [Example 14, 3-decyloxy benzoic acid decyl ester], the inhibition at 5 µg/mL in data set [1] was 21%. Moreover, the inhibition at 20 µg/mL in data set [2] (setting [4]) was found to be 32%.

Consider `CCCCCOC(=O)c1cc2ccccc2cc1OCCCCC` [Example 17, 3-pentyloxy-2-naphthoic acid pentyl ester], for which the inhibition at 5 µg/mL in data set [1] came out at 38%. In addition, in data set [2] (setting [4]), the inhibition at 20 µg/mL was 52%.

Take `CCOC(=O)c1ccccc1OCC` [Example 1, 2-ethoxy benzoic acid ethyl ester]: the inhibition at 5 µg/mL in data set [1] stood at 31%. Further, the inhibition at 20 µg/mL in data set [2] (setting [4]) came to 46%.

As to `CCCCCCCCOC(=O)c1cccc(OCCCCCCCC)c1` [Example 13, 3-octyloxy benzoic acid octyl ester], the inhibition at 5 µg/mL in data set [1] is 29%. Also, the inhibition at 20 µg/mL in data set [2] (setting [4]) was 41%.

Turning to `CCCCCCCCOC(=O)c1ccccc1OCCCCCCCC` [Example 6, 2-octyloxy benzoic acid octyl ester], the inhibition at 5 µg/mL in data set [1] turned out to be 41%. The inhibition at 20 µg/mL in data set [2] (setting [4]) worked out at 52%.

`CCCCC(CC)COC(=O)c1cccc(O)c1` (centres unmarked) [Example 29, 3-hydroxy benzoic acid 2-ethylhexyl ester]: the inhibition at 5 µg/mL in data set [1] came out at 26%. The inhibition at 20 µg/mL in data set [2] (setting [4]) worked out at 37%.

For `CCCCOC(=O)c1ccccc1OCCCC` [Example 3, 2-butoxy benzoic acid butyl ester], the inhibition at 5 µg/mL in data set [1] stood at 45%. For the same compound, in data set [2] (setting [4]), the inhibition at 20 µg/mL is 64%.

On to `CCCCCOC(=O)c1ccc2ccccc2c1OCCCCC` [Example 16, 1-pentyloxy-2-naphthoic acid pentyl ester], for which the inhibition at 5 µg/mL in data set [1] stood at 41%. In addition, the inhibition at 20 µg/mL in data set [2] (setting [4]) is 52%.

On to `CCCCC(CC)COC(=O)c1ccccc1O` (centres unmarked) [Example 28, 2-hydroxy benzoic acid 2-ethylhexyl ester], for which the inhibition at 5 µg/mL in data set [1] worked out at 27%. The inhibition at 20 µg/mL in data set [2] (setting [4]) was found to be 39%.

Turning to `CCCCCOc1cccc(C(C)=O)c1` [Example 21, 1-(3-pentyloxy-phenyl)-ethanone], the inhibition at 5 µg/mL in data set [1] was 25%. Besides, the inhibition at 20 µg/mL in data set [2] (setting [4]) is 45%.

Turning to `CCCCC(CC)C(=O)Oc1cccc(CCC)c1` (centres unmarked) [Example 27, 2-ethylhexanoic acid 3-propyl-phenyl ester], the inhibition at 5 µg/mL in data set [1] was 23%. The inhibition at 20 µg/mL in data set [2] (setting [4]) worked out at 41%.

With `CCCCOC(=O)c1cccc(OCCCC)c1` [Example 10, 3-butoxy benzoic acid butyl ester], in data set [1], the inhibition at 5 µg/mL was 38%. In data set [2] (setting [4]), the inhibition at 20 µg/mL came out at 54%.

In the case of `CCCCCOC(=O)c1cccc(OCCCCC)c1` [Example 11, 3-pentyloxy benzoic acid pentyl ester], the inhibition at 5 µg/mL in data set [1] was 49%. Besides, the inhibition at 20 µg/mL in data set [2] (setting [4]) was determined as 62%.

Turning to `CCCCC(CC)C(=O)Oc1ccccc1CCC` (centres unmarked) [Example 26, 2-ethylhexanoic acid 2-propyl-phenyl ester], the inhibition at 5 µg/mL in data set [1] turned out to be 24%. Moreover, in data set [2] (setting [4]), the inhibition at 20 µg/mL stood at 35%.

With `CCCCCOc1ccccc1CCC` [Example 25, 1-pentyloxy-2-propyl-benzene], the inhibition at 5 µg/mL in data set [1] is 16%. Moreover, the inhibition at 20 µg/mL in data set [2] (setting [4]) was 31%.

`CCCCCOC(=O)c1ccccc1OCCCCC` [Example 4, 2-pentyloxy benzoic acid pentyl ester]: in data set [1], the inhibition at 5 µg/mL is 54%. The inhibition at 20 µg/mL in data set [2] (setting [4]) stood at 65%.

As to `CCCCCCCCCCOC(=O)c1ccccc1OCCCCCCCCCC` [Example 7, 2-decyloxy benzoic acid decyl ester], the inhibition at 5 µg/mL in data set [1] stood at 22%. Besides, the inhibition at 20 µg/mL in data set [2] (setting [4]) is 35%.

Consider `CC(=O)Oc1ccccc1C(C)=O` [Example 23, acetic acid 2-acetyl-phenyl ester], for which the inhibition at 5 µg/mL in data set [1] turned out to be 27%. In data set [2] (setting [4]), the inhibition at 20 µg/mL came to 41%.

For the compound `CCCCCOc1cc2ccccc2cc1C(C)=O` [Example 22, 1-(3-pentyloxy-naphthalen-2-yl)-ethanone], in data set [1], the inhibition at 5 µg/mL was 19%. Moreover, the inhibition at 20 µg/mL in data set [2] (setting [4]) was 37%.

Turning to `CCCCCOC(=O)c1cc(C(C)=O)ccc1OCCCCC` [Example 15, 5-acetyl-2-pentyloxy benzoic acid pentyl ester], the inhibition at 5 µg/mL in data set [1] came to 39%. Moreover, the inhibition at 20 µg/mL in data set [2] (setting [4]) was found to be 57%.
